{"source": "patent US11230535B2", "about": "“CFTR regulators and methods of use thereof” (THE REGENTS OF THE UNIVERSITY OF CALIFORNIA, priority 2015, dated 2022)", "key": {"cAMP": {"test_system": "cAMP", "experiment": "cAMP GloSensor luminescence assay in FRT cells", "format": "cell-based, rat", "description": "Intracellular cAMP activity was measured using a GloSensor luminescence assay (Promega Corp., Madison, Wis., USA). FRT null cells were stably transfected with the pGloSensor cAMP plasmid and plated onto white 96-well microplates and grown to confluence. Cells were washed three times with PBS and incubated with 5 μM CFTRact-J027 for 10 min in the absence and presence of 100 nM forskolin. cAMP was assayed according to the manufacturer's instructions.\nIntracellular cAMP activity was measured using a GloSensor luminescence assay (Promega Corp., Madison, Wis., USA). FRT cells stably transfected with the pGloSensor cAMP plasmid (Promega Corp.) were cultured in white 96-well microplates (Corning Costar) overnight. Cells were then washed three times with PBS and incubated with 5 μM test compound for 10 min in the absence and presence of 100 nM forskolin.\ncAMP assay. Intracellular cAMP activity was measured using a GloSensor luminescence assay (Promega Corp., Madison, Wis., USA). FRT null cells were stably transfected with the pGloSensor cAMP plasmid and plated onto white 96-well microplates and grown to confluence. […]\ncAMP and cytotoxicity assays. Intracellular cAMP activity was measured using a GloSensor luminescence assay (Promega Corp., Madison, Wis., USA). […]"}, "mice": {"test_system": "mice", "experiment": "In vivo whole-gut transit time", "design": "species or system mouse", "description": "(§1) Whole-gut transit time was determined using an orally administered marker (200 μL, 5% Evans Blue, 5% gum Arabic) and measuring the time of its appearance in stool. Mice were administered loperamide and CFTRact-J027 (10 mg/kg) or vehicle intraperitoneally at zero time. For ex vivo contractility measurements, mice were euthanized by avertin overdose (200 mg/kg, 2,2,2-tribromethanol, Sigma-Aldrich) and ileum and colon segments of ˜2 cm length were isolated and washed with Krebs-Henseleit buffer. The ends of the intestinal segments were tied, connected to a force transducer (Biopac Systems, Goleta, Calif., USA) and tissues were transferred to an organ chamber (Biopac Systems) containing Krebs-Henseleit buffer at 37° C. aerated with 95% O2, 5% CO2. Ileum and colon were stabilized for 60 min with resting tensions of 0.5 and 0.2 g respectively, and solutions were changed every 15 min. Effects of CFTRact-J027 on baseline and loperamide-suppressed isometric intestinal contractions were recorded.\n(§2) In vivo intestinal transit and ex vivo intestinal contractility. Whole-gut transit time was determined using an orally administered marker (200 μL, 5% Evans Blue, 5% gum Arabic) and measuring the time of its appearance in stool. […] Effects of CFTRact-J027 on baseline and loperamide-suppressed isometric intestinal contractions were recorded."}, "[1]": {"test_system": "isolated mouse ileum and colon strips", "experiment": "Ex vivo contractility of isolated ileum and colon strips", "conditions": "alone or with 10 μM loperamide", "description": "as §1, §2"}, "closed mid-jejunal loops": {"test_system": "closed mid-jejunal loops", "experiment": "In vivo intestinal fluid secretion in closed mid-jejunal loops", "design": "species or system mouse", "conditions": "90 min", "description": "Mice (wildtype or CF) were given access to 5% dextrose water but not solid food for 24 h before experiments. Mice were anesthetized with isoflurane and body temperature was maintained during surgery at 36-38° C. using a heating pad. A small abdominal incision was made to expose the small intestine, and closed mid-jejunal loops (length 2-3 cm) were isolated by sutures. Loops were injected with 100 μL vehicle alone or 100 μg CFTRact-J027 in vehicle. The abdominal incision was closed with sutures, and mice were allowed to recover from anesthesia. Intestinal loops were removed at 90 min and loop length and weight were measured to quantify fluid secretion. Intestinal absorption was measured in CF mice (to prevent secretion) as described above, except that the loops were removed at 0 or 30 min. Absorption was calculated as 1−(loop weight at 0 min−loop weight at 30 min)/loop weight at 0 min.\nIn vivo intestinal secretion and absorption. Mice (wildtype or CF) were given access to 5% dextrose water but not solid food for 24 h before experiments. […] Intestinal loops were removed at 90 min and loop length and weight were measured to quantify fluid secretion. Intestinal absorption was measured in CF mice (to prevent secretion) as described above, except that the loops were removed at 0 or 30 min. Absorption was calculated as 1−(loop weight at 0 min−loop weight at 30 min)/loop weight at 0 min."}, "[2]": {"experiment": "7-day oral toxicity study in mice (blood count, serum chemistry, body weight, lung wet/dry weight)", "format": "in vivo, mouse", "description": "Chronic administration and toxicity studies."}, "loperamide-treated mice": {"test_system": "loperamide-treated mice", "experiment": "Loperamide-induced mouse model of constipation (3-h stool weight, pellet number, water content)"}, "[3]": {"conditions": "10 mg/kg oral once per day, 7 days"}}, "note": "Entries after “also recorded” stand apart in the source; their conditions may differ."}
{"smiles": "Nc1ccc([N+](=O)[O-])cc1-c1nc2ccccc2n(Cc2ccccc2)c1=O", "note": "[CFTRact-J027, 3-(2-amino-5-nitrophenyl)-1-benzylquinoxalin-2(1H)-one]", "values": [{"measurement": "cellular cAMP, added together with forskolin", "setting": "cAMP; 5 μM + 100 nM forskolin", "value": "does not further increase cAMP"}, {"measurement": "cellular cAMP, compound alone", "setting": "cAMP; 5 μM, 10 min", "value": "without causing elevation of cytoplasmic cAMP; also recorded: does not elevate cellular cAMP"}, {"measurement": "whole-gut transit time", "setting": "mice; 10 mg/kg ip, loperamide-treated wild-type mice", "value": "normalized"}, {"measurement": "whole-gut transit time in cystic fibrosis mice", "setting": "mice; CF mice", "value": "no effect"}, {"measurement": "intestinal contraction", "setting": "[1]", "value": "no effect"}, {"measurement": "increase in loop weight/length ratio", "setting": "closed mid-jejunal loops; 100 μg per loop, wild-type mice", "value": 140, "unit": "%"}, {"measurement": "loop fluid secretion in cystic fibrosis mice", "setting": "closed mid-jejunal loops; CF mice", "value": "without effect"}, {"measurement": "toxicity after chronic administration", "setting": "[2]; 10 mg/kg oral", "value": "without apparent toxicity"}, {"measurement": "ALP", "setting": "[2]; [3]", "value": "53 ± 2.5", "unit": "U/L"}, {"measurement": "ALT", "setting": "[2]; [3]", "value": "44 ± 6", "unit": "U/L"}, {"measurement": "AST", "setting": "[2]; [3]", "value": "105 ± 11", "unit": "U/L"}, {"measurement": "Albumin", "setting": "[2]; [3]", "value": "2.9 ± 0.03", "unit": "g/dL"}, {"measurement": "BUN", "setting": "[2]; [3]", "value": "18.4 ± 1.2", "unit": "mg/dL"}, {"measurement": "Bicarbonate", "setting": "[2]; [3]", "value": "16 ± 1.7", "unit": "mmol/L"}, {"measurement": "CK", "setting": "[2]; [3]", "value": "312 ± 62", "unit": "U/L"}, {"measurement": "Calcium", "setting": "[2]; [3]", "value": "8.5 ± 0.04", "unit": "mg/dL"}, {"measurement": "Chloride", "setting": "[2]; [3]", "value": "115 ± 1", "unit": "mmol/L"}, {"measurement": "Cholesterol", "setting": "[2]; [3]", "value": "121 ± 6", "unit": "mg/dL"}, {"measurement": "Creatinine", "setting": "[2]; [3]", "value": "0.2 ± 0", "unit": "mg/dL"}, {"measurement": "Globulin", "setting": "[2]; [3]", "value": "2.2 ± 0.1", "unit": "g/dL"}, {"measurement": "Glucose", "setting": "[2]; [3]", "value": "164 ± 6", "unit": "mg/dL"}, {"measurement": "Hemoglobin", "setting": "[2]; [3]", "value": "12.8 ± 0.3", "unit": "g/dL"}, {"measurement": "Leukocytes", "setting": "[2]; [3]", "value": "1.9 ± 0.5 10^3/μL"}, {"measurement": "Phosphorus", "setting": "[2]; [3]", "value": "6.8 ± 0.3", "unit": "mg/dL"}, {"measurement": "Potassium", "setting": "[2]; [3]", "value": "4.4 ± 0.1", "unit": "mmol/L"}, {"measurement": "Sodium", "setting": "[2]; [3]", "value": "151 ± 0.7", "unit": "mmol/L"}, {"measurement": "Thrombocytes", "setting": "[2]; [3]", "value": "900 ± 48 10^3/μL"}, {"measurement": "Total bilirubin", "setting": "[2]; [3]", "value": "0.1 ± 0", "unit": "mg/dL"}, {"measurement": "Total protein", "setting": "[2]; [3]", "value": "5.2 ± 0.1", "unit": "g/dL"}, {"measurement": "body weight and airway/lung fluid accumulation", "setting": "[2]; 7-day treated mice", "value": "nor did it change body weight or produce airway/lung fluid accumulation"}, {"measurement": "lung water content", "setting": "[2]; 7-day treated mice", "value": "normal lung water content"}, {"measurement": "serum chemistry and blood parameters, in words", "setting": "[2]; 7-day treated mice", "value": "did not affect the major serum chemistry and blood parameters"}, {"measurement": "stool weight, pellet number, water content", "setting": "loperamide-treated mice; 10 mg/kg ip, loperamide-treated mice", "value": "normalized each of the stool parameters"}, {"measurement": "efficacy after chronic administration", "setting": "loperamide-treated mice; 10 mg/kg oral daily for 7 days, loperamide 1 h after final dose", "value": "remained effective in normalizing stool output and water content"}, {"measurement": "effect on stool parameters in cystic fibrosis mice", "setting": "loperamide-treated mice; CF mice lacking functional CFTR", "value": "without effect"}, {"measurement": "stool output or water content in control mice", "setting": "loperamide-treated mice; ip, non-loperamide-treated mice", "value": "did not affect stool output or water content"}, {"measurement": "stool output, oral, control mice", "setting": "loperamide-treated mice; oral 10 mg/kg, control mice", "value": "no effect"}, {"measurement": "stool output and water content, oral administration", "setting": "loperamide-treated mice; oral (10 mg/kg) 1 h before loperamide, 10 mg/kg", "value": "normalized stool output and water content; also recorded: effective in normalizing stool output and water content"}, {"measurement": "ED50, oral administration", "setting": "loperamide-treated mice; oral, loperamide model", "value": 0.5, "unit": "mg/kg"}]}
